Data published in PubChem BioAssay AID2060610 (Molecular Pharmacology Branch, DTP, NCI, 2025).
pIC50: −log10 of the molar value. “And” between values parts separate entries of the source, which are not always exact repeats. Equal entries are not always repeated.

System: 616215-338-R-J1-PDC complex spheroids, viability % test/control
Experiment: Anticancer human tumor 616215-338-R-J1-PDC patient-derived colon adenocarcinoma cell line growth inhibition [CLK]
Settings: for viability, T/C: stronger effect = lower value; active = viability on the fitted dose curve at most 10% of control; inactive = the rest
Procedure, shortened: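 Patient-derived tumor cells grown as complex spheroids with HUVEC endothelial cells and mesenchymal stem cells, treated with drug combinations. Concentrations descend in half-log steps from near clinical Cmax, or from 10 microM if Cmax unknown.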

[1] = curve of first compound, second compound 0.0316 µM
[2] = curve of first compound, second compound 0.1 µM
[3] = curve of first compound, second compound 0.316 µM
[4] = curve of first compound, second compound 1 µM
[5] = curve of first compound, second compound 3.16 µM
[6] = curve of first compound, second compound 10 µM
[7] = second compound 0.0316 µM, first compound 0.0316 µM
[8] = second compound 0.0316 µM, first compound 0.1 µM
[9] = second compound 0.0316 µM, first compound 0.316 µM
[10] = second compound 0.0316 µM, first compound 1 µM
[11] = second compound 0.0316 µM, first compound 3.16 µM
[12] = second compound 0.0316 µM, first compound 10 µM
[13] = second compound 0.1 µM, first compound 0.0316 µM
[14] = second compound 0.1 µM, first compound 0.1 µM
[15] = second compound 0.1 µM, first compound 0.316 µM
[16] = second compound 0.1 µM, first compound 1 µM
[17] = second compound 0.1 µM, first compound 3.16 µM
[18] = second compound 0.1 µM, first compound 10 µM
[19] = second compound 0.316 µM, first compound 0.0316 µM
[20] = second compound 0.316 µM, first compound 0.1 µM
[21] = second compound 0.316 µM, first compound 0.316 µM
[22] = second compound 0.316 µM, first compound 1 µM
[23] = second compound 0.316 µM, first compound 3.16 µM
[24] = second compound 0.316 µM, first compound 10 µM
[25] = second compound 1 µM, first compound 0.0316 µM
[26] = second compound 1 µM, first compound 0.1 µM
[27] = second compound 1 µM, first compound 0.316 µM
[28] = second compound 1 µM, first compound 1 µM
[29] = second compound 1 µM, first compound 3.16 µM
[30] = second compound 1 µM, first compound 10 µM
[31] = second compound 3.16 µM, first compound 0.0316 µM
[32] = second compound 3.16 µM, first compound 0.1 µM
[33] = second compound 3.16 µM, first compound 0.316 µM
[34] = second compound 3.16 µM, first compound 1 µM
[35] = second compound 3.16 µM, first compound 3.16 µM
[36] = second compound 3.16 µM, first compound 10 µM
[37] = second compound 10 µM, first compound 0.0316 µM
[38] = second compound 10 µM, first compound 0.1 µM
[39] = second compound 10 µM, first compound 0.316 µM
[40] = second compound 10 µM, first compound 1 µM
[41] = second compound 10 µM, first compound 3.16 µM
[42] = second compound 10 µM, first compound 10 µM
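Note: spheroids exposed to agents for 7 days.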
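Throughout, for viability, T/C: 100% = DMSO vehicle wells.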

Nc1ccccc1NC(=O)c1ccc(CNC(=O)OCc2cccnc2)cc1 + CNC(=O)c1ccc(Nc2nc(OC3CCCC3)c3c(-c4ccc5nc(C)oc5c4)c[nH]c3n2)c(OC)c1
> 7.50: pIC50 [3] | pIC50 [4] | pIC50 [5] | pIC50 [6]
7.07: pIC50 [2]
5.29: pIC50 [1]
inactive: viability, T/C [7] 86.2% | viability, T/C [8] 82% | viability, T/C [9] 80.2% | viability, T/C [10] 96.7% | viability, T/C [11] 72.5% | viability, T/C [12] 17.7% | viability, T/C [13] 56.1% | viability, T/C [14] 48.9% | viability, T/C [15] 37.3% | viability, T/C [16] 36.1% | viability, T/C [17] 36.7% | viability, T/C [18] 10.6% | viability, T/C [19] 40.7% | viability, T/C [20] 39.4% | viability, T/C [21] 35.9% | viability, T/C [22] 34% | viability, T/C [23] 29.3% | viability, T/C [24] 7.21% | viability, T/C [25] 42.7% | viability, T/C [26] 36.7% | viability, T/C [27] 32.8% | viability, T/C [28] 29.1% | viability, T/C [29] 24.8% | viability, T/C [31] 35.1% | viability, T/C [32] 35.8% | viability, T/C [33] 28.5% | viability, T/C [34] 26.9% | viability, T/C [35] 22.7% | viability, T/C [37] 34.3% | viability, T/C [38] 30.8% | viability, T/C [39] 28% | viability, T/C [40] 24% | viability, T/C [41] 23.8%
active: viability, T/C [30] 6.92% | viability, T/C [36] 3.91% | viability, T/C [42] 3.95%

C#Cc1c(F)ccc2cc(O)cc(-c3ncc4c(N5CC6CCC(C5)N6)nc(OCC56CCCN5CC(F)C6)nc4c3F)c12 (centres undefined) + CN1CCN(c2cc(C(=O)Nc3cc4cc(-c5cnn(C)c5)ccc4cn3)ccn2)CC1
active: viability, T/C [25] 0.17% | viability, T/C [26] 0.82% | viability, T/C [27] 0.2% | viability, T/C [28] 0.18% | viability, T/C [29] 0.17% | viability, T/C [30] 0.71% | viability, T/C [31] 0.13% | viability, T/C [32] 2.81% | viability, T/C [33] 0.12% | viability, T/C [34] 0.12% | viability, T/C [35] 0.13% | viability, T/C [36] 3.3% | viability, T/C [37] 0.18% | viability, T/C [38] 1.06% | viability, T/C [39] 0.16% | viability, T/C [40] 0.18% | viability, T/C [41] 0.18% | viability, T/C [42] 2.17%
inactive: viability, T/C [7] 93.7% | viability, T/C [8] 91.2% | viability, T/C [9] 109% | viability, T/C [10] 102% | viability, T/C [11] 106% | viability, T/C [12] 99.1% | viability, T/C [13] 101% | viability, T/C [14] 103% | viability, T/C [15] 94.7% | viability, T/C [16] 101% | viability, T/C [17] 102% | viability, T/C [18] 74.7% | viability, T/C [19] 36.2% | viability, T/C [20] 38.8% | viability, T/C [21] 30% | viability, T/C [22] 33.3% | viability, T/C [23] 24.7% | viability, T/C [24] 18.8%
< 5.00: pIC50 [1] | pIC50 [2]
> 7.50: pIC50 [3] | pIC50 [4] | pIC50 [5] | pIC50 [6]

CC1COCCN1c1cc(C2(S(C)(=N)=O)CC2)nc(-c2ccnc3[nH]ccc23)n1 (centres undefined)
inactive: viability, T/C (compound 0.0316 µM) 94.9% and 102% | viability, T/C (compound 0.1 µM) 107% and 96.5% | viability, T/C (compound 0.316 µM) 97.7% and 96.1% | viability, T/C (compound 1 µM) 99.8% and 94.2% | viability, T/C (compound 3.16 µM) 105% and 106% | viability, T/C (compound 10 µM) 78.6% and 92.2%
< 5.00: pIC50 (curve of compound)

COc1ccc([C@@H](O)c2cc(-c3ncnc4cc(N5CCOCC5)ccc34)c(F)cc2Cl)nn1 + CN1CCN(c2cc(C(=O)Nc3cc4cc(-c5cnn(C)c5)ccc4cn3)ccn2)CC1
5.02: pIC50 [2]
inactive: viability, T/C [7] 105% | viability, T/C [8] 106% | viability, T/C [9] 105% | viability, T/C [10] 109% | viability, T/C [11] 111% | viability, T/C [12] 67.7% | viability, T/C [13] 122% | viability, T/C [14] 107% | viability, T/C [15] 104% | viability, T/C [16] 103% | viability, T/C [17] 88.4% | viability, T/C [18] 47.2% | viability, T/C [19] 25.2% | viability, T/C [20] 30.6% | viability, T/C [21] 25.9% | viability, T/C [22] 19.8% | viability, T/C [23] 17.9% | viability, T/C [24] 7.77%
< 5.00: pIC50 [1]
active: viability, T/C [25] 0.11% | viability, T/C [26] 0.15% | viability, T/C [27] 1.72% | viability, T/C [28] 0.1% | viability, T/C [29] 0.59% | viability, T/C [30] 0.08% | viability, T/C [31] 0.09% | viability, T/C [32] 0.13% | viability, T/C [33] 0.15% | viability, T/C [34] 0.1% | viability, T/C [35] 0.14% | viability, T/C [36] 0.12% | viability, T/C [37] 0.11% | viability, T/C [38] 0.13% | viability, T/C [39] 0.18% | viability, T/C [40] 0.18% | viability, T/C [41] 1.74% | viability, T/C [42] 0.19%
> 7.50: pIC50 [3] | pIC50 [4] | pIC50 [5] | pIC50 [6]

C=CC(=O)N1CCN(c2nc(=O)n(-c3c(C)ccnc3C(C)C)c3nc(-c4c(O)cccc4F)c(F)cc23)C(C)C1 (centres undefined) + CNC(=O)c1ccc(Nc2nc(OC3CCCC3)c3c(-c4ccc5nc(C)oc5c4)c[nH]c3n2)c(OC)c1
> 7.50: pIC50 [3] | pIC50 [5] | pIC50 [6]
inactive: viability, T/C [7] 89.8% | viability, T/C [8] 94.6% | viability, T/C [9] 92.8% | viability, T/C [10] 93.2% | viability, T/C [11] 94.6% | viability, T/C [12] 95.1% | viability, T/C [13] 53.8% | viability, T/C [14] 67.8% | viability, T/C [15] 60.8% | viability, T/C [16] 64% | viability, T/C [17] 55.1% | viability, T/C [18] 56.4% | viability, T/C [19] 49.7% | viability, T/C [20] 44.8% | viability, T/C [21] 46.9% | viability, T/C [22] 49.8% | viability, T/C [23] 53.1% | viability, T/C [24] 49.2% | viability, T/C [25] 58.5% | viability, T/C [26] 49.1% | viability, T/C [27] 50.4% | viability, T/C [28] 48.9% | viability, T/C [29] 54.6% | viability, T/C [30] 54.6% | viability, T/C [31] 43.2% | viability, T/C [32] 45.2% | viability, T/C [33] 40.1% | viability, T/C [34] 49.1% | viability, T/C [35] 59.3% | viability, T/C [36] 52.6% | viability, T/C [37] 43.5% | viability, T/C [38] 41.3% | viability, T/C [39] 46.3% | viability, T/C [40] 56.6% | viability, T/C [41] 53.6% | viability, T/C [42] 54.8%
< 5.00: pIC50 [1] | pIC50 [2] | pIC50 [4]

O=c1[nH]cc(F)c(=O)[nH]1 + CNC(=O)c1ccc(Nc2nc(OC3CCCC3)c3c(-c4ccc5nc(C)oc5c4)c[nH]c3n2)c(OC)c1
inactive: viability, T/C [7] 96.7% | viability, T/C [8] 110% | viability, T/C [9] 60.2% | viability, T/C [10] 52.3% | viability, T/C [11] 43.1% | viability, T/C [12] 41.4% | viability, T/C [13] 47% | viability, T/C [14] 45.9% | viability, T/C [15] 35% | viability, T/C [16] 34.1% | viability, T/C [17] 40.9% | viability, T/C [18] 36.5% | viability, T/C [19] 41.6% | viability, T/C [20] 41.7% | viability, T/C [21] 33.6% | viability, T/C [22] 37.3% | viability, T/C [23] 36.6% | viability, T/C [24] 39.3% | viability, T/C [25] 43.4% | viability, T/C [26] 38% | viability, T/C [27] 36.3% | viability, T/C [28] 37.8% | viability, T/C [29] 38.2% | viability, T/C [30] 33.3% | viability, T/C [31] 42.3% | viability, T/C [32] 42.2% | viability, T/C [33] 38% | viability, T/C [34] 32.6% | viability, T/C [35] 36% | viability, T/C [36] 36.4% | viability, T/C [37] 51.1% | viability, T/C [38] 41.3% | viability, T/C [39] 41.8% | viability, T/C [40] 38.5% | viability, T/C [41] 37.1% | viability, T/C [42] 39.2%
> 7.50: pIC50 [2] | pIC50 [3] | pIC50 [4] | pIC50 [5] | pIC50 [6]
6.15: pIC50 [1]

CCCS(=O)(=O)Nc1ccc(F)c(C(=O)c2c[nH]c3ncc(-c4ccc(Cl)cc4)cc23)c1F
0.01% and 24.1%: viability, T/C (compound 10 µM)
5.80 and 5.17: pIC50 (curve of compound)
inactive: viability, T/C (compound 0.0316 µM) 22.5% and 95.7% | viability, T/C (compound 0.1 µM) 33.6% and 96.8% | viability, T/C (compound 0.316 µM) 104% and 98.2% | viability, T/C (compound 1 µM) 96% and 95.1% | viability, T/C (compound 3.16 µM) 29.5% and 104%
